Where a name gives a salt, the structure may show the parent alone.
These compounds were tested against T1, human recombinant Dipeptidyl peptidase IV enzyme (Homo sapiens, UniProt P27487) (assay: In-vitro DPP-IV assay (cleavage of Gly-Pro-AMC)). Details: at 300 nM, n = 3, read-out: DPP-IV inhibition, percent inhibition at 300 nM.
T1 construct: purchased R & D Systems
Format: biochemical
Description: Protocol for In-Vitro DPP-IV Assay
DPPIV activity was determined by the cleavage rate of 7-amino-4-methyl coumarin (AMC) from synthetic substrate Glycyl-Prolyl-AMC. In brief, the assay was conducted by adding 10 ng of human recombinant Dipeptidyl peptidase IV enzyme (DPPIV, available commercially from R & D Systems) in 50 μl of the assay buffer (25 mM Tris, pH 7.4, 140 mM NaCl, 10 mM KCl, 1% BSA) to 96 well black flat bottom microtiter plates. The reaction was initiated by adding 50 μl of 100 μM substrate Gly-Pro-AMC. The incubation was carried out in the kinetic mode at 30° C. for 30 minutes. Fluorescence was measured using Fluorostar at excitation filter of 380 nm and emission filter of 460 nm). Test compounds and solvent controls were added as 1 μl additions. A standard curve of free amino methyl coumarin (AMC) was generated using 0–100 μM AMC in the assay buffer. The curve generated, which was linear was used for the interpolation of catalytic activity.
Test compounds dissolved in DMSO at 5–6 concentrations were tested in duplicate along with the solvent control and blank samples. Percent inhibition was calculated at each concentration with respect to the solvent control sample (no test compound added). IC50 values were calculated from 3 experiments using the prism software.

T1 sequence (P27487 whole entry): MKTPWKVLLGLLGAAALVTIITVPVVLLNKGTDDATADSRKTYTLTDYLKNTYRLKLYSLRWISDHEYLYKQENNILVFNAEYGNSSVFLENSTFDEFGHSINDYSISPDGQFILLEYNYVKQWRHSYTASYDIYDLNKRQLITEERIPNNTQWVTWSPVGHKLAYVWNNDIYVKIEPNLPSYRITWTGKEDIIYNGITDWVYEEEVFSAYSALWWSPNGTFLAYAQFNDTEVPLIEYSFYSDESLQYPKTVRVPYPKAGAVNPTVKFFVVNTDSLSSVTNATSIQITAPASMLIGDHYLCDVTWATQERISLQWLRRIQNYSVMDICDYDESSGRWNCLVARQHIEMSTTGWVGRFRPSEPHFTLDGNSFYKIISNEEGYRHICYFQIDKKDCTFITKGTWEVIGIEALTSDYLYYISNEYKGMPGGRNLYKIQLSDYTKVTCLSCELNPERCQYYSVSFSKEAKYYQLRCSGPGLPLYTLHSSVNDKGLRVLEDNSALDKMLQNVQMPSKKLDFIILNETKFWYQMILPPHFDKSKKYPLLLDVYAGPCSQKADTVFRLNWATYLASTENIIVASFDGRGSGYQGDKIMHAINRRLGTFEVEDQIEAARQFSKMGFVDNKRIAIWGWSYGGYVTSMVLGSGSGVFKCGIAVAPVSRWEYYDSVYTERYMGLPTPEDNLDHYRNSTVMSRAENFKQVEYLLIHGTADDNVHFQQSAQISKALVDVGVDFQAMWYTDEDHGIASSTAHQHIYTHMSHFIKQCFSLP

| Compound | inhibition at 0.3 µM [%] |
| --- | --- |
| N#Cc1ccc(OC[C@H]2CC[C@@H](NCC(=O)N3CCC[C@H]3C#N)C2)c2oc3ccccc3c12 [Example-51, (2S)-1-{2-[(3S,1R)-3-(1-Cyanodibenzo[b,d]furan-4-yloxymethyl)cyclopentylamino]-acetyl}-pyrrolidine-2-carbonitrile] | 25 |

Same assay, conditions: n = 3, substrate Gly-Pro-AMC, 30° C., 30 minutes, read-out: DPP-IV inhibition IC50

| Compound | IC50 [nM] |
| --- | --- |
| N#C[C@@H]1CCCN1C(=O)CN[C@@H]1CC[C@H](CS(=O)(=O)c2ccccc2)C1 [Example-31, (2S)-1-{2-[(3S,1R)-3-Phenylsulfonylmethylcyclopentylamino]acetytl}-pyrrolidine-2-carbonitrile] | 91.8 |
| N#C[C@@H]1CCCN1C(=O)CN[C@H]1CC[C@@H](CSc2ccccc2)C1 [Example-32, (2S)-1-{2-[(1S,3R)-3-Phenylsulfanylmethylcycopentylamino]acetyl}-pyrrolidine-2-carbonitrile] | 37 |
| N#C[C@@H]1CCCN1C(=O)CN[C@H]1CC[C@@H](CS(=O)(=O)c2ccccc2)C1 [Example-33, (2S)-1-{2-[(1S,3R)-3-Phenylsulfonylmethylcyclopentylamino]acetyl}-pyrrolidine-2-carbonitrile] | 57.3 |
| N#C[C@@H]1CCCN1C(=O)CN[C@H]1CC[C@@H](CSc2ccc(F)cc2)C1 [Example-34, (2S)-1-{2-[(1S,3R)-3-(4-Fluorophenylsulfanylmethyl)cyclopentylamino]acetyl}-pyrro-lidine-2-carbonitrile] | 26.1 |
| N#C[C@@H]1CCCN1C(=O)CN[C@H]1C=C[C@@H](CSc2ccccn2)C1 [Example-35, (2S)-1-{2-[(4S,1R)-4-(2-Pyridylsulfanylmethyl)cyclopent-2-enealino]acetyl}-pyrrolidine-2-carbonitrile] | 70.9 |
| N#C[C@@H]1CCCN1C(=O)CN[C@H]1CC[C@@H](CSc2ccccn2)C1 [Example-36, (2S)-1-{2-[(1S,3R)-3-(2-Pyridylsulfanylmethyl)cyclopentylamino]acetyl}-pyrrolidine-2-carbonitrile] | 10.6 |
| N#C[C@@H]1CCCN1C(=O)CN[C@H]1CC[C@@H](CS(=O)(=O)c2ccccn2)C1 [Example-37, (2S)-1-{2-[(1S,3R)-3-(2-Pyridylsulfonylmethyl)cyclopentylamino]acetyl}-pyrrolidine-2-carbonitrile] | 66 |
| N#C[C@@H]1CCCN1C(=O)CN[C@@H]1CC[C@H](CSc2ncccn2)C1 [Example-41, (2S)-1-{2-[(3S,1R)-3-(2-Pyrimidinylsulfanylmethyl)cyclopentylamino]acetyl}-pyrrol-idine-2-carbonitrile] | 15.8 |
| N#C[C@@H]1CCCN1C(=O)CN[C@@H]1CC[C@H](CSc2nc3ccccc3[nH]2)C1 [Example-42, (2S)-1-{2-[(3S,1R)-3-(1H-Benzo[d]imidazol-2-ylsulfanylmethyl)cyclopentylamino]-acetyl}-pyrrolidine-2-carbonitrile] | 26.8 |
| N#C[C@@H]1CCCN1C(=O)CN[C@@H]1CC[C@H](COc2ccc([N+](=O)[O-])cc2)C1 [Example-44, (2S)-1-{2-[(3S,1R)-3-(4-Nitrophenoxymethyl)cyclopentylamino]acetyl}-pyrrolidine-2-carbonitrile] | 25.8 |
| N#C[C@@H]1CCCN1C(=O)CN[C@H]1CC[C@@H](COc2ccc([N+](=O)[O-])cc2)C1 [Example-45, (2S)-1-{2-[(3R,1S)-3-(4-Nitrophenoxymethyl)cyclopentylamino]acetyl}-pyrrolidine-2-carbonitrile] | 49.9 |
| N#Cc1ccc(OC[C@@H]2CC[C@H](NCC(=O)N3CCC[C@H]3C#N)C2)cc1 [Example-46] | 11.6 |
| N#Cc1ccc(OC[C@H]2CC[C@@H](NCC(=O)N3CCC[C@H]3C#N)C2)cc1 [Example-47, (2S)-1-{2-[(3S,1R)-3-(4-Cyanophenoxymethyl)cyclopentylamino]acetyl}-pyrrolidine-2-carbonitrile] | 13.8 |
| N#Cc1ccc(OC[C@H]2CC[C@@H](NCC(=O)N3CCC[C@H]3C#N)C2)cc1 [Example-48, (2S)-1-{2-[(3S,1R)-3-(4-Cyanophenoxymethyl)cyclopentylamino]acetyl}-pyrrolidine-2-carbonitrile hydrochloride] | 13.5 |
| N#Cc1ccc(OC[C@H]2CC[C@@H](NCC(=O)N3CCC[C@H]3C#N)C2)cc1F [Example-49, (2S)-1-{2-[(3S,1R)-3-(4-Cyano-3-fluorophenoxymethyl)cyclopentylamino]acetyl}-pyrrolidine-2-carbonitrile] | 23.5 |
| N#Cc1ccc(OC[C@H]2CC[C@@H](NCC(=O)N3C[C@@H](F)C[C@H]3C#N)C2)cc1F [Example-50, (2S,4S)-1-{2-[(3S,1R)-3-(4-Cyano-3-fluorophenoxymethyl)cyclopentylamino]acetyl}-4-fluoro-pyrrolidine-2-carbonitrile] | 2.56 |

From patent US7230002B2, “Dipeptidyl peptidase IV inhibitors; processes for their preparation and compositions thereof” (Glenmark Pharmaceuticals Ltd., priority 2004, dated 2007)
